Experimental data as given in patent US10087199B2, “Super-resolution imaging compositions and methods using same” (Yale University, priority 2014, dated 2018).
“Also recorded” adds a separate entry of the source.

Experiments:
HeLa cells (Golgi label) = experiment: Photostability in sequential 3D spinning disk confocal imaging; type: cell-based; settings: fixed cells
Procedure: The relative photostability of Cer-TCO/SiR-Tz to both BODIPY-Cer and the SiR labeled SNAP-tag Golgi protein Rab6 was compared. The latter is the product of reaction between Rab6-SNAP and a benzyl guanine derivative of SiR (SiR-BG) (Lukinavicius, et al., 2013, Nature Chem. 5:132-139) and thus contains the same near-IR dye as SiR-Tz (FIGS. 5A-5B). HeLa cells were treated with Cer-TCO/SiR-Tz or BODIPY-Cer, while Rab6-SNAP-expressing cells were treated with SiR-BG. The cells were then examined in sequential 3D images using spinning disk confocal microscopy; 3D visualization limited fluorescence fluctuations due to axial sample drift. In each case, 3D “stacks” of 22 optical sections were acquired in series up to 500 times in live or fixed cells (FIGS. 5A-5B). In live cells, even under optimal imaging conditions the BODIPY-Cer fluorescent signal decreased by 50% after fewer than 15 stacks. In striking contrast, the fluorescent signal of cells treated with 2 μM Cer-TCO followed by 2 μM SiR-Tz decreased by only 10% after more than 120 3D stacks had been acquired. Consistent with a lower density of Rab6-SNAP protein in the Golgi, the signal from Rab6-SNAP-SiR decayed at an intermediate rate, decreasing by 50% after about 50 3D stacks. […] After 500 3D stacks the fluorescent signal of Cer-SiR decreased 16% whereas that of Rab6-SNAP-SiR decreased by 84%. […]

[1] = test system: HeLa cells stably transfected to express GalNAcT2-GFP (Golgi); experiment: Incubation with premixed/preassembled Cer-SiR (Golgi labeling); type: cell-based; settings: approximately 2 μM Cer-SiR solution; three protocols A-C
Procedure: An approximately 2 μM solution of Cer-SiR was prepared as follows: Stock solutions in DMSO of SiR-Tz and Cer-TCO were added to a PBS buffer supplemented with 1% casein to achieve a final concentration of 2 μM for both components. The solution was thoroughly mixed and incubated for 15 min at room temperature. Before the solution was added to dishes containing cells, Pluronic F-127 was added (0.2% final concentration). The formation of Cer-SiR was confirmed by HPLC.
Protocol A: HeLa cells stably transfected to express GalNAcT2-GFP were cultured on 35 mm glass bottom dishes (Mattek), washed with DMEM (3×) and incubated with the Cer-SiR solution (prepared as described elsewhere herein) for 5 min at 37° C. The dish was washed with DMEM (3×) and incubated at 19.5° C. for 60 min, washed with DMEM (3×) and imaged.
Protocol B: Same as protocol A, but without the wash step before the incubation at 19.5° C.
Protocol C: HeLa cells stably transfected to express GalNAcT2-GFP were cultured on 35 mm glass bottom dishes (Mattek), washed with DMEM (3×) and incubated with the Cer-SiR solution described for 30 min at 4° C. The dish was washed with DMEM (3×) and incubated at 37° C. for 30 min, washed with DMEM (3×) and imaged. This protocol was similar to the protocol used for Golgi labeling with BODIPY-Cer.

## CCCCCCCCCCCCC/C=C/[C@@H](O)[C@H](CO)NC(=O)CCCCCNC(=O)OC1CCCC2=C(c3ccc(CNC(=O)c4ccc(C(=O)[O-])c(C5=C6C=CC(=[N+](C)C)C=C6[Si](C)(C)c6cc(N(C)C)ccc65)c4)cc3)NN=CC2CC1 (stereo partly drawn) [Cer-SiR, 4-((4-(7-(((6-(((2S,3R,E)-1,3-dihydroxyoctadec-4-en-2-yl)amino)-6-oxohexyl)carbamoyl)oxy)-2,4a,5,6,7,8,9,10-octahydrocycloocta[d]pyridazin-1-yl)benzyl)carbamoyl)-2-(7-(dimethylamino)-3-(dimethyliminio)-5,5-dimethyl-3,5-dihydrodibenzo[b,e]silin-10-yl)benzoate]
HeLa cells (Golgi label)
  Decrease of fluorescent signal after 500 3D stacks: 16%
[1]
  Golgi labeling with preassembled Cer-SiR: not suitable for Golgi labeling; also recorded: did not lead to Golgi labeling
